Experimental data published in PubChem BioAssay (NCI).
Several values for one entry are separate records, joined by “and”; a condition that tells them apart may be missing. Equal entries are not always repeated.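 Cells were grown in 96-well plates and exposed to each compound for 48 hours at five concentrations; endpoints were interpolated linearly between bracketing concentrations, or set to the highest concentration if not reached. GI50 is the concentration that inhibits growth by half. TGI is the concentration that stops growth completely.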 *1 amine or outer side, *2 acyl side, *3 side chain or, on linkers, in order; H or OH if unused. Where a SMILES comes first, the peptide text is derived from it. [ ]: non-standard residue; d: D form. X32 = C[C@H](N[*:1])C(=O)C(C)(C)C(=O)[*:2]; Hmpa(2S,3S) = CC[C@H](C)[C@H](O)C(=O)O; NMeY = CN[C@@H](Cc1ccc(O)cc1)C(=O)O; NMeL = CN[C@@H](CC(C)C)C(=O)O; NMeV = CN[C@H](C(=O)O)C(C)C; βAla = NCCC(=O)O

What was measured:
Test in all cases: growth of human tumour cells (NCI), 48 h
LOX IMVI melanoma = system: LOX IMVI melanoma
HL-60(TB) leukemia = system: HL-60(TB) leukemia
U251 CNS = system: U251 CNS
M14 melanoma = system: M14 melanoma
A498 renal = system: A498 renal
K-562 leukemia = system: K-562 leukemia
NCI-H226 lung = system: NCI-H226 lung
SK-MEL-28 melanoma = system: SK-MEL-28 melanoma

SMILES	TGI (LOX IMVI melanoma)	TGI (HL-60(TB) leukemia)	TGI (U251 CNS)	TGI (M14 melanoma)	TGI (A498 renal)	TGI (K-562 leukemia)	TGI (NCI-H226 lung)	TGI (SK-MEL-28 melanoma)	GI50 (LOX IMVI melanoma)	GI50 (HL-60(TB) leukemia)	GI50 (U251 CNS)	GI50 (SK-MEL-28 melanoma)	GI50 (M14 melanoma)	GI50 (A498 renal)	GI50 (K-562 leukemia)	GI50 (NCI-H226 lung)
COc1ccc2nc(-c3ccc(O)cc3)sc2c1	44.9 µM	53.5 µM	36.2 µM	47.5 µM	85.7 µM	> 100 µM	45.8 µM	–	–	–	–	–	–	–	–	–
CC[C@H](C)[C@@H]1OC(=O)CCNC(=O)[C@@H](C)NC(=O)C(C)(C)C(=O)[C@H](C)NC(=O)[C@H](Cc2ccc(OC)cc2)N(C)C(=O)[C@H](C(C)C)N(C)C(=O)CNC(=O)[C@H](CC(C)C)N(C)C(=O)CNC1=O (cyclo(G[NMeL]G[NMeV][NMeY](Me)[X32][dA][βAla][Hmpa(2S,3S)]))	10.7 µM	–	2.62 µM	10.2 µM	5.91 µM	> 24.5 µM	> 38.2 µM	> 36.3 µM	–	–	–	–	–	–	–	–
CCOC(=O)c1ccc(NCC#CCN2CCCCC2)cc1	> 100 µM	> 100 µM	> 100 µM	> 100 µM	> 100 µM	> 100 µM	> 100 µM	> 100 µM	–	–	–	–	–	–	–	–
Cc1ccc(S(=O)(=O)N2CCCSCC2)cc1	> 100 µM	–	> 100 µM	–	> 100 µM	> 100 µM	> 100 µM	> 100 µM	–	–	–	–	–	–	–	–
C=CCc1cccc2cc(C(=O)Nc3ccccn3)c(=N)oc12	> 100 µM	> 100 µM	> 100 µM	> 100 µM	> 100 µM	> 100 µM	> 100 µM	> 100 µM	–	–	–	–	–	–	–	–
C[C@@H]1CC[C@@H]2[C@@H](C1)O[C@@H]([C@H](C)OCc1ccccc1)SC2(C)C	32.8 µM	–	33.5 µM	47.1 µM	39.3 µM	39.5 µM	33 µM	88.1 µM	–	–	–	–	–	–	–	–
CC1(C)CCC[C@]2(C)[C@H]3[C@H](C#N)c4cc(O)c(O)cc4O[C@@]3(C)CC[C@@H]12	> 10 µM	> 10 µM	> 10 µM	> 10 µM	> 10 µM	> 10 µM	> 10 µM	> 10 µM	–	–	–	–	–	–	–	–
C/C(=N\NC(=S)NCCCNC(=S)N/N=C(\C)c1ccccn1)c1ccccn1	> 51.2 µM	> 30.2 µM	> 47.1 µM	4.08 µM	26.2 µM	> 100 µM	> 29.6 µM	> 100 µM	–	–	–	–	–	–	–	–
COc1ccccc1C(=O)c1c(NCc2ccccc2)c(=O)c1=O	> 100 µM	> 100 µM	> 100 µM	> 100 µM	> 100 µM	> 100 µM	> 100 µM	35.8 µM	–	–	–	–	–	–	–	–
Cc1nc2c(=O)n(C)ncc2[nH]1	–	> 100 µM	> 100 µM	> 100 µM	> 100 µM	> 100 µM	> 100 µM	> 100 µM	–	–	–	–	–	–	–	–
Cc1ccc2c(c1)-c1nc(N)c(C#N)c(-c3ccccc3)c1CCS2(=O)=O	> 100 µM	–	> 100 µM	> 100 µM	98.9 µM	> 100 µM	78.5 µM	> 100 µM	–	–	–	–	–	–	–	–
O=c1/c(=C/c2ccc(-c3ccc(Cl)cc3Cl)o2)sc2n1[C@@H](c1ccc(Cl)cc1)C=C(c1cc(F)c(Cl)cc1Cl)N=2	> 100 µM	–	> 100 µM	> 100 µM	4.71 µM	> 100 µM	> 100 µM	> 100 µM	–	–	–	–	–	–	–	–
CC(C)(C)c1cc(O)ccc1O	> 74.6 µM	26.7 µM	5.56 µM	> 100 µM	> 100 µM	> 100 µM	> 100 µM	> 100 µM	–	–	–	–	–	–	–	–
COc1ccc(SCc2cc(OCc3ccccc3)c(OCc3ccccc3)c(OCc3ccccc3)c2)cc1	2.91 µM	3.44 µM	3.22 µM	3.57 µM	3.49 µM	2.62 µM	3.73 µM	3.52 µM	–	–	–	–	–	–	–	–
C(=C\c1ccco1)/c1cccc(/C=C/c2ccco2)n1	> 50 µM	> 50 µM	–	> 50 µM	> 50 µM	> 50 µM	> 50 µM	> 50 µM	–	–	–	–	–	–	–	–
CCOC(=O)c1c(N2CCOCC2)[nH]c(=O)c(C(c2ccco2)c2c(O)c(C(=O)OCC)c(N3CCOCC3)[nH]c2=O)c1O	> 100 µM	–	> 100 µM	> 100 µM	> 100 µM	> 100 µM	> 100 µM	> 100 µM	–	–	–	–	–	–	–	–
CC(=O)Nc1ccc(C2SCc3nc4ccccc4n32)cc1 (centres undefined)	> 100 µM	> 100 µM	> 100 µM	> 100 µM	28.6 µM	> 100 µM	–	> 100 µM	–	–	–	–	–	–	–	–
Cc1ccccc1S(=O)(=O)Nn1cnc2ccc(S(=O)(=O)Nc3ccc(Cl)cc3)cc2c1=O	> 100 µM	> 100 µM	> 100 µM	> 100 µM	–	> 100 µM	> 100 µM	> 100 µM	–	–	–	–	–	–	–	–
CC(=O)O[C@H]1[C@H](OC(=O)CC(C)(O)CC(=O)O)C[C@]2(C)C3=C(CCC2C1(C)C)[C@]1(C)CC[C@H]([C@H]2CC[C@H](C(C)(C)O)OC2O)[C@@]1(C)[C@@H](O)C3 (some centres undefined)	35.9 µM	36.5 µM	35.5 µM	33.4 µM	26.4 µM	76.5 µM	53.8 µM	31.5 µM	–	–	–	–	–	–	–	–
CCCCCCCCCCCCC(O)[C@H]1CC[C@H](C(O)CCCCCC(=O)CCCCC2CC(C(C)=O)C(=O)O2)O1 (some centres undefined)	21.6 µM	> 29.5 µM	> 62.5 µM	26.2 µM	36.6 µM	> 63.6 µM	46.1 µM	66.2 µM	1.87 µM	2.68 µM	3.99 µM	4.06 µM	6.01 µM	2.62 µM	1.91 µM	3.48 µM
CC1=C(C)Cc2c(O)ccc(O)c2C1	46.7 µM	23.5 µM	34.2 µM	30 µM	> 100 µM	49.8 µM	42.1 µM	25 µM	–	–	–	–	–	–	–	–
C=C1C2C[C@@H]3O[C@H]4C[C@H]5O[C@@]6(C[C@@H]7O[C@]8(C[C@H](C)[C@@H]9O[C@@H]%10CC(CO)O[C@@H]%10C[C@@H]9O8)C[C@H](C)[C@@H]7O6)C[C@H]5O[C@H]4[C@H](C)[C@H]3OC(=O)C[C@H]3CC[C@@H]4OC5[C@H]6O[C@]7(CC[C@H]8CC(=C)[C@H](CC[C@@H](C[C@H]1C)O2)O8)CC6O[C@@H]5[C@@H](O7)[C@H]4O3 (some centres undefined)	> 0.433 µM	–	> 1 µM	> 1 µM	> 1 µM	> 1 µM	0.00022 µM	–	–	–	–	–	–	–	–	–
COC(=O)C1OC(O[C@H]2CC[C@]3(C)[C@H]4CC=C5[C@@H]6CC(C)(C)CC[C@]6(C(=O)OC6OCC(O)C(O)C6OC6OC(C)C(OC7OCC(O)C(O)C7O)C(O)C6O)CC[C@@]5(C)[C@]4(C)CC[C@H]3C2(C)C)C(O)C(O)C1O (some centres undefined)	30.5 µM and 29 µM	41.3 µM and 35.1 µM	33.3 µM and 33.8 µM	28.6 µM and 32.5 µM	20 µM and 35.3 µM	64.6 µM and 62.2 µM	37.7 µM and 37.2 µM	27.8 µM and 30.5 µM	–	–	–	–	–	7.25 µM and 20.7 µM	–	–
